# According to paper PMC11436104 (Toxins, 2024):
# Like-named read-outs stand apart in the source and are kept apart here. *1 amine or outer side, *2 acyl side, *3 side chain or, on linkers, in order; H or OH if unused. Where a SMILES comes first, the peptide text is derived from it. Bridges are numbered along the chain shown (N, C = ends). [ ]: non-standard residue; d: D form. Adda = CO[C@@H](Cc1ccccc1)[C@@H](C)/C=C(C)/C=C/[C@H](N[*:1])[C@H](C)C(=O)[*:2]; dAsp(3S-Me) = C[C@H](C(=O)[*:3])[C@@H](N[*:1])C(=O)[*:2]; d(γGlu) = O=C(O)[C@@H](CCC(=O)[*:2])N[*:1]; hTyr = N[C@@H](CCc1ccc(O)cc1)C(=O)O; NMeA = CN[C@@H](C)C(=O)O; NMeDha = C=C(NC)C(=O)O; CO = O=C([*:1])[*:2]
# Assays:
# U87-MG cells [1] = test: Intermediate filament immunostaining (nestin, GFAP), confocal microscopy; type: cell-based, human
# Experimental: (§1) For the intermediate filaments, visualization at 1 µM MC-LR was used as the positive control. The cells were stained with rabbit monoclonal anti-GFAP (Merck Millipore, Bedford, MA, USA, Cat. # AB5804) and secondary Alexa-488 goat anti-rabbit IgG (Molecular Probes, Cat. # A-11034) antibodies and with mouse monoclonal anti-nestin (Merck Millipore, Cat. # MAB5326) and secondary Alexa-488 goat anti-mouse IgG (Molecular Probes, Cat. # A-11017) antibodies.
# (§2) The cells in all the experiments were exposed to the CCPs for an additional 24 h in the CO2 incubator at 37 °C in a 5% CO2 atmosphere before they were fixed.
# (§3) Fixing and staining. The cells were washed in phosphate-buffered saline (PBS) and fixed in 3.7% paraformaldehyde in either PBS (37 °C, 30 min; for microfilaments, microtubules, nestin) or in ice-cold methanol (4 °C, 10 min; for GFAP, desmoplakin I+II). Then the cells were permeabilized in PBS containing 0.1% Triton X-100 (v/v; Merck, Germany) for 20 min and blocked in 4% bovine serum albumin (Sigma) at room temperature for 10 min. For desmoplakin I+II visualization, the cells were blocked in 10% fetal bovine serum (Sigma) for 60 min without cell permeabilization. Microfilaments were stained with rhodamine-conjugated phalloidin (1:40) for 30 min at room temperature. Microtubules were visualized by immunostaining using an anti-α-tubulin antibody overnight at 4 °C (1:200 in PBS containing Ca^2+, 0.1% [v/v] Tween-20) and the secondary antibodies labeled with Alexa-488 goat anti-mouse IgG (1:1000; 30 min at room temperature). Intermediate filaments were stained using anti-nestin (1:500; overnight at 4 °C) and anti-GFAP (1:500, overnight at 4 °C) antibodies. The anti-nestin-labeled cells were visualized using secondary antibodies labeled with Alexa-488 goat anti-mouse IgG and the anti-GFAP-labeled cells with Alexa-488 anti-rabbit IgG (1:1000 dilution, room temperature, 30 min). Desmoplakin I+II were stained with a mouse anti-desmoplakin I+II antibody (1:500 dilution; room temperature, 60 min) and visualized with Alexa-488 goat anti-mouse IgG (1:1000 dilution; room temperature, 30 min). The cell nuclei were stained with To-Pro-3 (Molecular Probes; 1:1000 dilution; room temperature, 30 min). After each step, the samples were washed three times with PBS. Finally, all the cell preparations were immersed in an antifade reagent (Prolong Gold; Molecular Probes) to prevent photobleaching.
# (§4) Microscopy. […] The cell preparations were also examined under light microscopy (Eclipse TE 3000; Nikon, Japan), and the images were recorded under phase contrast and epifluorescence (i.e., B-2A and G-2A filters, respectively).
# NHAs [2] = test: Cell morphology, light microscopy (phase contrast); type: cell-based, human; details: evident already at 1 µM, 24 h, 100× magnification
# [3] = Interaction with the air–water interface (Langmuir trough, no lipids); type: physicochemical; details: absence of lipids, 0–30 µM injected, 25 °C, pH 7.5
# Experimental: (§5) Lateral pressure measurements were carried out in a Langmuir trough (MicroTrough-S system; Kibron, Helsinki, Finland) at room temperature (25 °C) under constant stirring. The aqueous sub-phase was 500 µL 10 mM Hepes, 200 mM NaCl, and pH 7.5.
# [4] = Insertion into lipid monolayer (Langmuir trough, surface pressure); type: physicochemical; details: for insertion kinetics into the lipid monolayer (surface pressure increase): 20 µM, initial pressure ~11 mN/m; for critical pressure of insertion: extrapolation to zero pressure variation (ΔΠ = 0), 20 µM CCP
# Experimental: as §5
# To create lipid monolayers, dioleylposphatidylcholine and cholesterol (70:30) were dissolved together in chloroform/methanol (2:1, v/v) and gently spread over the sub-phase. The desired initial surface pressure was obtained by changing the amounts of the lipid mixture applied to the air–water interface. After solvent evaporation (10 min), each CCP was separately injected through a hole that was connected to the sub-phase, at a final concentration in the Langmuir trough of 20 µM. The changes in surface pressure versus time were recorded until a stable signal was obtained. […] The increase in the surface pressure (∆Π) was plotted versus the initial pressure (Π0), and the critical pressures were determined using linear regression with Prism 5 software (GraphPad, Inc., La Jolla, CA, USA).
# U87-MG cells [5] = test: Cytoskeleton immunostaining (microfilaments, microtubules), confocal microscopy; type: cell-based, human; details: 10 µM, 24 h
# Experimental: (§6) To determine the influence of the CCPs on actin microfilament and microtubule organization, the cells were labeled with rhodamine-conjugated phalloidin (Molecular Probes, Cat. # R415), and mouse monoclonal anti-bovine α-tubulin antibodies (Molecular Probes Cat. # A11126) and secondary Alexa-488 goat anti-mouse IgG (Molecular Probes Cat. # A-11017), respectively. The cells (3000/well) were plated into 16-well plates (Culture Well Chambered Coverglass for Cell Culture; […].
# as §2, §3, §4
# NHAs [6] = test: as above; type: cell-based, human; details: 10 µM, 24 h
# Experimental: as §6, §2, §3, §4
# NHAs [7] = test: Intermediate filament immunostaining (nestin, GFAP), confocal microscopy; type: cell-based, human
# Experimental: as §1, §2, §3, §4
Compound,morphological changes under light microscopy (NHAs [2]),insertion kinetics into the lipid monolayer (surface pressure increase) [4],critical pressure of insertion [4],microfilament (actin) organization (U87-MG cells [5]),further results
CC[C@H](C)[C@@H]1NC(=O)[C@H](Cc2ccc(OC)cc2)N(C)C(=O)[C@H]([C@@H](C)O)N2C(=O)[C@H](CC[C@H]2O)NC(=O)[C@H](CC(C)C)NC(=O)[C@@H](NC(=O)[C@H](CCC(N)=O)NC(=O)[C@H](CCc2ccc(O)cc2)NC(=O)[C@@H](O)CO)[C@@H](C)OC1=O,formation of twisted astrocytic outgrowths,interacted rapidly with the monolayer,34.2 mN/m,aggregation of the cortical microfilaments along the basal membrane and degradation of the membrane ruffles,"GFAP filament organization (U87-MG cells [1]; U87-MG, 24 h): concentration of the GFAP filaments was observed along the entire cell body; concentration at which saturation of the air–water interface was observed [3]: 25 µM; microtubule organization (U87-MG cells [5]): the microtubules were reorganized and concentrated around the nucleus; microfilament and microtubule organization (NHAs [6]): strong cytolytic effects on the NHAs, with the collapse of the microfilaments in the center of the cell"
"C=C1C(=O)N[C@H](C)C(=O)N[C@@H](CC(C)C)C(=O)N[C@@H](C(=O)O)[C@H](C)C(=O)N[C@@H](CCCNC(=N)N)C(=O)N[C@@H](/C=C/C(C)=C/[C@H](C)[C@H](Cc2ccccc2)OC)[C@H](C)C(=O)N[C@@H](C(=O)O)CCC(=O)N1C [MC-LR, Microcystin-LR, reference compound] (R[Adda][d(γGlu)][NMeDha][dA]L[dAsp(3S-Me)]-OH; lactam N-7)",–,–,–,–,GFAP filament organization (U87-MG cells [1]): concentration of the GFAP filaments was observed along the entire cell body; nestin organization (NHAs [7]): most intense nestin concentration
CC(C)[C@@H]1NC(=O)[C@H](NC(=O)N[C@@H](CCCNC(=N)N)C(=O)O)CCCCNC(=O)[C@H](Cc2ccccc2)NC(=O)[C@H](C)N(C)C(=O)[C@H](CCc2ccc(O)cc2)NC1=O [anabaenopeptin B] ({Arg-CO}-[dK]V[hTyr][NMeA]F; lactam 1-C),formation of twisted astrocytic outgrowths,interacted rapidly with the monolayer,27.1 mN/m,–,"GFAP immunolabeling, cell shape (NHAs [7]; NHAs, 24 h): characteristic twisted outgrowths"
CC[C@H](C)[C@@H]1NC(=O)[C@H](NC(=O)N[C@@H](CCCNC(=N)N)C(=O)O)CCCCNC(=O)[C@H](Cc2ccccc2)NC(=O)[C@H](C)N(C)C(=O)[C@H](CCc2ccc(O)cc2)NC1=O [anabaenopeptin F] ({Arg-CO}-[dK]I[hTyr][NMeA]F; lactam 1-C),–,–,–,actin aggregation,–
